Tests used:
Assay in all cases: relative viability (nuclei count vs DMSO), 5 days (fraction); higher = more cells survive
[1] = compound: C1COCCN1C2=NC(=NC3=C2OC4=C3C=CC=N4)C5=CC(=CC=C5)NC(=O)C6=CN=C(C=C6)N + Cc1nc(NC(=O)N2CCC[C@H]2C(N)=O)sc1-c1ccnc(C(C)(C)C(F)(F)F)c1 [Alpelisib] (partner 2 µM)
In short: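 Lung cancer cell lines were seeded in 1536-well plates and dosed by pin tool the next day, with either a single drug or a fixed anchor-drug dose combined with five library-drug doses (not always all listed) spaced in √10 steps. Five days later, one step fixed the cells and stained their nuclei (final 0.05% Triton X-100, 1% formaldehyde, 1 ug/ml Hoechst), and nuclei were counted on 4× images. Relative viability is the nuclei count in treated wells divided by the count in vehicle wells, and each value is the median of duplicate plates.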

[2] = compound: Nc1ccccc1NC(=O)c1ccc(CNC(=O)OCc2cccnc2)cc1 [Entinostat]
In short: (§1)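 Following overnight incubation at 37 °C, lung cancer cell lines in 1536-well plates were pinned with five library-drug doses (not always all listed) in √10 steps on vehicle-anchored plates. The cells then spent 5 days without medium change before a combined fix, permeabilisation and Hoechst stain, 4× imaging and MetaXpress nuclear counts. Viability is the treated-to-vehicle ratio of nuclei, taken as the median across plates. Only plates with control CV below 25% and at least one doubling passed.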

[3] = compound: C1COCCN1C2=NC(=NC3=C2OC4=C3C=CC=N4)C5=CC(=CC=C5)NC(=O)C6=CN=C(C=C6)N
In short: as §1

[4] = compound: CN1CCC(CNc2ccc3ncc(-c4cccc(OC(F)(F)F)c4)n3n2)CC1 [SGI-1776]
In short: as §1

| Cell Line | relative viability ([1]; first compound 0.02 µM) | relative viability ([1]; first compound 0.06325 µM) | relative viability ([1]; first compound 0.2 µM) | relative viability ([1]; first compound 0.6325 µM) | relative viability ([1]; first compound 2 µM) | relative viability ([2]; 0.02 µM) | relative viability ([2]; 0.06325 µM) | relative viability ([2]; 0.2 µM) | relative viability ([2]; 0.6325 µM) | relative viability ([2]; 2 µM) | relative viability ([3]; 0.02 µM) | relative viability ([3]; 0.06325 µM) | relative viability ([3]; 0.2 µM) | relative viability ([3]; 0.6325 µM) | relative viability ([3]; 2 µM) | relative viability ([4]; 0.08 µM) | relative viability ([4]; 0.8 µM) | relative viability ([4]; 2.53 µM) | relative viability ([4]; 8 µM) |
| --- | --- | --- | --- | --- | --- | --- | --- | --- | --- | --- | --- | --- | --- | --- | --- | --- | --- | --- | --- |
| NCI-H2170 | 0.847 | 0.887 | 0.682 | 0.854 | 0.496 | 0.995 | 0.996 | 0.984 | 0.708 | 0.525 | 1 | 1.07 | 1.06 | 0.995 | 0.773 | 0.947 | 1 | 0.961 | 0.893 |
| HCC-366 | 0.575 | 0.471 | 0.314 | 0.287 | 0.189 | 1.03 | 1.09 | 0.943 | 0.515 | 0.154 | 1.03 | 1.07 | 1.05 | 1.04 | 0.738 | 0.957 | 1.02 | 0.989 | 1.02 |
| NCI-H2405 | 0.664 | 0.716 | 0.803 | 0.815 | 0.622 | 1.03 | 1.15 | 0.972 | 0.915 | 0.609 | 0.987 | 1.05 | 0.97 | 0.953 | 0.779 | 1.04 | 1.08 | 0.793 | 0.826 |
| COR-L 105 | 0.912 | 1.02 | 0.801 | 0.705 | 0.583 | 0.947 | 1.14 | 1.06 | 0.747 | 0.371 | 0.868 | 0.717 | 0.751 | 0.695 | 0.591 | 1.09 | 1.01 | 0.949 | 0.722 |
| 201T | 1.03 | 1.03 | 0.926 | 0.96 | 0.966 | 1.04 | 1.04 | 1.03 | 0.712 | 0.624 | 0.963 | 0.994 | 0.985 | 1 | 0.897 | 1.01 | 0.991 | 0.964 | 0.891 |
| NCI-H2228 | 0.737 | 0.707 | 0.66 | 0.493 | 0.317 | 0.852 | 1.01 | 0.944 | 0.625 | 0.359 | 0.899 | 1.16 | 1.01 | 0.92 | 0.418 | 0.966 | 1.02 | 0.808 | 0.71 |
| LCLC-103H | 0.87 | 0.993 | 0.962 | 0.967 | 0.878 | 1.03 | 1.06 | 0.942 | 0.721 | 0.454 | 0.913 | 1.06 | 1.07 | 0.978 | 0.815 | 1.02 | 0.998 | 0.964 | 0.924 |
| NCI-H2087 | 1.05 | 1.12 | 1.05 | 1.12 | 0.619 | 1.02 | 0.983 | 0.981 | 0.49 | 0.345 | 1.06 | 1.22 | 1.06 | 0.956 | 0.65 | 1.2 | 1.08 | 0.995 | 0.956 |

From the supplement of paper PMC10307832
